Results on 16 compounds are retold here after patent publication US4109000A, “5-Benzylpicolinic acid derivatives” (Nippon Shinyaku Co., Ltd., priority 1975, dated 1978).

The structures appear in SMILES notation. Converted amounts (≈) assume the structure as drawn. Where two headings read alike, the source gives them in different places.

Data set [1] is described as follows: acute toxicity (LD50), intraperitoneal, ddY male mice. The settings on record: mouse, in vivo, ip, ddY male mice (6 weeks age). On the procedure:
The pharmacological action of the product of the present invention can be conventionally observed as follows: 50 mg/kg of a sample was administered orally to spontaneously hypertensive rats (male 20-40 weeks age) and percent decrease in blood pressure after 1, 2, 3 and 5 hours was determined, using the known fusaric acid as a reference. Acute toxicity of the compounds was determined by introperitoneal administration of the samples to ddY male mice (6 weeks age), followed by calculation of the values after observation for one week. The results are as follows:

A further data set deals with T1, dopamine-β-hydroxylase (Bos taurus, UniProt P15101).
T1 sequence (P15101 1-610): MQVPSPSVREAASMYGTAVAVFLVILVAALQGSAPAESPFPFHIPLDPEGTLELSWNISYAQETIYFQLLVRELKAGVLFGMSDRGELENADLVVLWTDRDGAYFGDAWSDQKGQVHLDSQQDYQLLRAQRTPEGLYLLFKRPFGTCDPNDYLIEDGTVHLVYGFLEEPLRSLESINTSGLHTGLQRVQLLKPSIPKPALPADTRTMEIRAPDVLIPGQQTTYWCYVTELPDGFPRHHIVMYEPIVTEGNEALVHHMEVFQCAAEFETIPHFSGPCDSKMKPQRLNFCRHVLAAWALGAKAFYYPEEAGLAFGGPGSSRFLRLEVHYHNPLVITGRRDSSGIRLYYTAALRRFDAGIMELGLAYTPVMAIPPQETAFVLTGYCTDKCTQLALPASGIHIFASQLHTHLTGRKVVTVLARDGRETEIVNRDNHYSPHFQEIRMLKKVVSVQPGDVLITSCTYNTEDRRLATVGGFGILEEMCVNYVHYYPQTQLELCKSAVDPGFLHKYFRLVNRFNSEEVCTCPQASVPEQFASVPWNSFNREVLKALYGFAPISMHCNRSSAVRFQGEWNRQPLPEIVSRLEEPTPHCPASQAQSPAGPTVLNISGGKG
Kind of data set: dopamine-β-hydroxylase inhibitory activity. The class given is biochemical.

Data set [2] deals with spontaneously hypertensive rats. Kind of data set: percent decrease in blood pressure in spontaneously hypertensive rats, oral. The class given is in vivo, spontaneously hypertensive rats (male). The settings on record: for % Decrease in blood pressure, 1hr.: after 1 hr; for % Decrease in blood pressure, 2hrs.: after 2 hrs; for % Decrease in blood pressure, 3hrs.: after 3 hrs; for inhibition in vivo at 50 mg/kg: Rattus norvegicus, po, read-out: % Decrease in blood pressure, 5hrs. On the procedure:
The pharmacological action of the product of the present invention can be conventionally observed as follows: 50 mg/kg of a sample was administered orally to spontaneously hypertensive rats (male 20-40 weeks age) and percent decrease in blood pressure after 1, 2, 3 and 5 hours was determined, using the known fusaric acid as a reference. Acute toxicity of the compounds was determined by introperitoneal administration of the samples to ddY male mice (6 weeks age), followed by calculation of the values after observation for one week.

[3] abbreviates: observation for one week (second table), read-out: LD50 (i.p.).
Where [4] appears, read: 50 mg/kg orally, spontaneously hypertensive rats (male 20-40 weeks).
Setting [5] is: 50 mg/kg orally, spontaneously hypertensive rats (male 20-40 weeks), after 5 hrs.
Setting [6] is: intraperitoneal, observation for one week (first table), read-out: LD50.

On to `O=C(O)c1ccc(Cc2ccccc2O)cn1` [5-(2-Hydroxybenzyl)-picolinic Acid], for which the LD50 at 168 h in data set [1] (setting [3]) stood at 354 mg/kg. At dopamine-β-hydroxylase, this compound gave an IC50 of 91.6 nM.
In the case of `COc1ccccc1Cc1ccc(C(=O)O)nc1` [5-(2-Methoxybenzyl)-picolinie acid, 5-(2-Methoxybenzyl)picolinic acid], in data set [2] (setting [4]), the “% Decrease in blood pressure, 1hr.” value is recorded as 25.9%; the “% Decrease in blood pressure, 2hrs.” value is 26.9%; the “% Decrease in blood pressure, 3hrs.” value was found to be 26.0%. The inhibition in vivo at 50 mg/kg in data set [2] (setting [5]) was 25.5%. For the same compound, in data set [1] (setting [6]), the LD50 at 168 h was 177 mg/kg.
Consider `O=C(O)c1ccc(Cc2ccc(O)c(O)c2)cn1` [5-(3,4-Dihydroxybenzyl)-picolinic Acid, 5-(3,4-dihydroxybenzyl)picolinic acid], for which the 50% lethal dose (LD50) at 168 h in data set [1] (setting [3]) stood at 561 mg/kg. In addition, inhibition against dopamine-β-hydroxylase was half-maximal at 35.9 nM (IC50).
The compound `Nc1ccc(Cc2ccc(C(=O)O)nc2)cc1` [5-(4-Aminobenzyl)-picolinic Acid] showed an IC50 against dopamine-β-hydroxylase of 333 nM.
On to `O=C(O)c1ccc(Cc2ccc(Cl)cc2)cn1` [5-(4-Chlorobenzyl)-picolinic acid, 5-(4-Chlorobenzyl)picolinic acid], for which, in data set [2] (setting [4]), the “% Decrease in blood pressure, 1hr.” value was found to be 26.4%; the “% Decrease in blood pressure, 2hrs.” value is given as 42.1%; the “% Decrease in blood pressure, 3hrs.” value is 48.6%. The inhibition in vivo at 50 mg/kg in data set [2] (setting [5]) is 50.3%. In addition, the LD50 at 168 h in data set [1] (setting [6]) stood at 120 mg/kg.
Take `O=C(O)c1ccc(Cc2ccc(O)cc2)cn1` [5-(4-Hydroxybenzyl)-picolinic Acid, 5-(4-hydroxybenzyl)picolinic acid]: the LD50 at 168 h in data set [1] (setting [3]) was 193 mg/kg. The same compound displayed an ID50 at dopamine-β-hydroxylase (dopamine-β-hydroxylase inhibition) of 8.9 ng/mL (≈ 0.0388 µM).
On to `COc1ccc(Cc2ccc(C(=O)O)nc2)cc1` [5-(4-Methoxybenzyl)-picolinic acid, 5-(4-methoxybenzyl)picolinic acid], for which, in data set [2] (setting [4]), the “% Decrease in blood pressure, 1hr.” value came to 24.8%; the “% Decrease in blood pressure, 2hrs.” value was found to be 28.1%; the “% Decrease in blood pressure, 3hrs.” value turned out to be 23.4%. Besides, in data set [2] (setting [5]), the inhibition in vivo at 50 mg/kg was found to be 21.9%. In addition, the LD50 at 168 h in data set [1] (setting [6]) was found to be 132 mg/kg.
In the case of `O=C(O)c1ccc(Cc2ccc([N+](=O)[O-])cc2)cn1` [5-(4-Nitrobenzyl)-picolinic acid, 5-(4-nitrobenzyl)picolinic acid], the inhibition in vivo at 50 mg/kg in data set [2] (setting [5]) stood at 39.8%. The LD50 at 168 h in data set [1] (setting [6]) came out at 177 mg/kg.
In the same order, the values of `O=C(NCc1ccccc1)c1ccc(Cc2ccccc2)cn1` [5-Benzylpicolinic acid N-benzylamide] are 27.1% and 707 mg/kg.
Take `O=C(O)c1ccc(Cc2ccccc2)cn1` [5-Benzylpicolinic acid, 5-benzylpicolinic acid]: in data set [2] (setting [4]), the “% Decrease in blood pressure, 1hr.” value is reported as 12.7%; the “% Decrease in blood pressure, 2hrs.” value was 19.0%; the “% Decrease in blood pressure, 3hrs.” value came out at 24.9%. Also, the inhibition in vivo at 50 mg/kg in data set [2] (setting [5]) worked out at 29.5%. In data set [1] (setting [6]), the LD50 at 168 h is 138 mg/kg.
Consider `CCOC(=O)c1ccc(Cc2ccc(O)cc2)cn1` [Ethyl 5-(4-hydroxybenzyl)-picolinate, ethyl 5-(4-hydroxybenzyl)picolinate], for which, in data set [1] (setting [3]), the LD50 at 168 h worked out at 594 mg/kg. The compound further gave an IC50 on dopamine-β-hydroxylase of 27.6 nM.
`CCOC(=O)c1ccc(Cc2ccccc2)cn1.Cl` [Ethyl 5-benzylpicolinate (Hydrochloride), ethyl 5-benzylpicolinate hydrochloride]: the inhibition in vivo at 50 mg/kg in data set [2] (setting [5]) turned out to be 32.4%. The LD50 at 168 h in data set [1] (setting [6]) is 140 mg/kg.
Take `CCCCc1ccc(C(=O)O)nc1` [Fusaric acid, reference compound]: in data set [2] (setting [4]), the “% Decrease in blood pressure, 1hr.” value is given as 15.6%; the “% Decrease in blood pressure, 2hrs.” value is reported as 21.3%; the “% Decrease in blood pressure, 3hrs.” value is listed as 16.5%. For the same compound, the inhibition in vivo at 50 mg/kg in data set [2] (5 h) is 21%. Besides, the LD50 at 168 h in data set [1] (setting [6]) stood at 80 mg/kg. Besides, at dopamine-β-hydroxylase, the IC50 is 83.7 nM.
Regarding `COC(=O)c1ccc(Cc2ccc(O)cc2)cn1` [Methyl 5-(4-hydroxybenzyl)-picolinate, methyl 5-(4-hydroxybenzyl)-picolinate], the LD50 at 168 h in data set [1] (setting [3]) came out at 1000 mg/kg. The same compound gave an IC50 against dopamine-β-hydroxylase of 28.8 nM.
On to `COC(=O)c1ccc(Cc2ccccc2)cn1` [Methyl 5-benzylpicolinate], for which the inhibition in vivo at 50 mg/kg in data set [2] (setting [5]) amounted to 48.8%. The LD50 at 168 h in data set [1] (setting [6]) was 88 mg/kg.
In turn, `O=C(O)c1ccccn1` [Picolinic Acid] gave an IC50 against dopamine-β-hydroxylase of 8120 nM.

Usually LD50 stands for the dose expected to kill half of the subjects tested. By IC50 is commonly meant the midpoint of a concentration-inhibition curve.
